pIC50, pKi: −log10 of the molar value. Active and inactive are the calls of the source. No cut-off for these calls is given here.
What was measured:
Mus musculus [1] = assay: Anti-alzheimer activity against scopolamine-induced cognitive dysfunction mouse model assessed as change in neuron damage in hippocampal CA3 region at 50 to 100 mg/kg, po measured after 10 days by Nissl staining based assay; type: functional, organism-based; conditions: Hippocampus, dose 50-100 mg/kg, time 10.0 day
BV-2 [2] = assay: Effect of compound on LPS- induced ROS production in mouse BV-2 cells at 6.25 to 25 uM by microscopic analysis; type: functional, cell-based; conditions: dose 6.25-25 µM
[3] = Acute toxicity in Sprague-Dawley rat assessed as histological changes in spleen at 2000 mg/kg, IG administered as single dose measured after 14 days by H and E staining based analysis; type: organism-based; conditions: in vivo, po, 336 h, time 14 day
[4] = Acute toxicity in Sprague-Dawley rat assessed as abnormality in body weight at 2000 mg/kg, IG administered as single dose measured after 14 days; type: organism-based; conditions: in vivo, po, 336 h, time 14 day
[5] = AUC (0 to t) in Sprague-Dawley rat at 100 mg/kg, po measured upto 24 hrs by LC-MS analysis; type: ADME, organism-based; set-up: route oral, dose 100 mg/kg, time <=24; conditions: in vivo
BV-2 [6] = assay: Anti-neuroinflammation in mouse BV-2 cells assessed as decrease in LPS-induced iNOS activity at 6.25 to 25 umol/L by fluorescence based assay; type: functional, cell-based; conditions: dose 6.25-25 µmol/L
BV-2 [7] = assay: Anti-neuroinflammation in mouse BV-2 cells assessed as increase in LPS-induced IL-4 production measured after 24 hrs by ELISA; type: functional, cell-based; conditions: dose 6.25-25 µmol/L
Mus musculus [8] = assay: Anti-alzheimer activity against scopolamine-induced cognitive dysfunction mouse model assessed as increase in movement distance in central and peripheral area at 50 to 100 mg/kg,po dosed for 10 days and measured after 30 mins on day 11 by open field test; type: functional, organism-based; conditions: dose 50-100 mg/kg, time 10.0 day
[9] = Acute toxicity in Sprague-Dawley rat assessed as abnormality in diet at 2000 mg/kg, IG administered as single dose measured after 14 days; type: organism-based; conditions: in vivo, po, 336 h, time 14 day
Mus musculus [10] = assay: Anti-alzheimer activity against scopolamine-induced cognitive dysfunction mouse model assessed as increase in rate of time spend in central and peripheral area at 50 to 100 mg/kg,po dosed for 10 days and measured after 30 mins on day 11 by open field test; type: functional, organism-based; conditions: dose 50-100 mg/kg, time 10.0 day
Mus musculus [11] = assay: Anti-alzheimer activity against scopolamine-induced cognitive dysfunction mouse model assessed as change in neuron damage in hippocampal CA1 region at 50 to 100 mg/kg, po measured after 10 days by Nissl staining based assay; type: functional, organism-based; conditions: Hippocampus, dose 50-100 mg/kg, time 10.0 day
[12] = Cmax in Sprague-Dawley rat at 100 mg/kg, po measured upto 24 hrs by LC-MS analysis; type: ADME, organism-based; set-up: route oral, dose 100 mg/kg, time <=24; conditions: in vivo
BV-2 [13] = assay: Anti-neuroinflammation in mouse BV-2 cells assessed as decrease in LPS-induced IL-6 production at 6.25 to 25 umol/L measured after 24 hrs by ELISA; type: functional, cell-based; conditions: dose 6.25-25 µmol/L
Acetylcholinesterase [14] = biological target: T1, Acetylcholinesterase (Electrophorus electricus, UniProt O42275); assay: Inhibition of electric eel AChE using acetylthiocholine iodide as substrate assessed as inhibition constant at 0.78 to 12.5 uM preincubated for 10 mins followed by substrate addition and measured for 15 mins by Lineweaver-Burk plot analysis
T1 sequence (O42275 whole entry): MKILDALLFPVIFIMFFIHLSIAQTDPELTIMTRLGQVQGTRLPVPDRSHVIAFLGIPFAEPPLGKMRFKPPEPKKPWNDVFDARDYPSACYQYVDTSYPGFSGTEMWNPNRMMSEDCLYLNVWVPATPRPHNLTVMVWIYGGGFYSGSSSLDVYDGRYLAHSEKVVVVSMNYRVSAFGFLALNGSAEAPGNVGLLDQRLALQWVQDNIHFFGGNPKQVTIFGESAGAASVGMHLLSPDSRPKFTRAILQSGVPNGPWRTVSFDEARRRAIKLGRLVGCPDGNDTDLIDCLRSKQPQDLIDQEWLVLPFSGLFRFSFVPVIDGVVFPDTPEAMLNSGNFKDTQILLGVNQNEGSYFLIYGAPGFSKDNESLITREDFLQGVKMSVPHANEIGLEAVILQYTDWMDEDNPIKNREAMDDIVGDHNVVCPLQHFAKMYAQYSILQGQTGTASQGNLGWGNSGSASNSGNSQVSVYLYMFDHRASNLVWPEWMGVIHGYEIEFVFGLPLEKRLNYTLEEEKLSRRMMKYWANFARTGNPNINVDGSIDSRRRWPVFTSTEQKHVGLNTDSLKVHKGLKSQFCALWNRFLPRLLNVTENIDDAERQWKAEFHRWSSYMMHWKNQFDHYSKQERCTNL

[15] = MRT(0 to t) in Sprague-Dawley rat at 100 mg/kg, po measured upto 24 hrs by LC-MS analysis; type: ADME, organism-based; conditions: in vivo
in vivo = conditions: Sprague-Dawley, rat, brain/plasma, 100 mg/kg
Description: Ratio of drug concentration in brain to plasma in Sprague-Dawley rat at 100 mg/kg measured at 10 mins by LC-MS analysis

[16] = Tmax in Sprague-Dawley rat at 100 mg/kg, po measured upto 24 hrs by LC-MS analysis; type: ADME, organism-based; conditions: in vivo
Mus musculus [17] = assay: Anti-alzheimer activity against scopolamine-induced cognitive dysfunction mouse model assessed as decrease in swimming distance at 100 mg/kg, po dosed for 10 days and measured after 30 mins on day 11 by Morris water maze test; type: functional, organism-based; conditions: time 10.0 day
[18] = Acute toxicity in Sprague-Dawley rat assessed as abnormality in living off at 2000 mg/kg, IG administered as single dose measured after 14 days; type: organism-based; conditions: in vivo, po, 336 h, time 14 day
HT-22 = assay: cells; type: functional, cell-based; conditions: Mus musculus, HT-22, 24 h
Description: Cytotoxicity against mouse HT-22 cells assessed as reduction in cell viability measured after 24 hrs by MTT assay

[19] = Acute toxicity in Sprague-Dawley rat assessed as histological changes in brain at 2000 mg/kg, IG administered as single dose measured after 14 days by H and E staining based analysis; type: organism-based; conditions: in vivo, po, 336 h, time 14 day
[20] = Half life in Sprague-Dawley rat at 100 mg/kg, po measured upto 24 hrs by LC-MS analysis; type: ADME, organism-based; conditions: in vivo
Cholinesterase [21] = biological target: T2, Cholinesterase (Equus caballus, UniProt P81908); assay: Inhibition of equine serum BChE using butyrylthiocholine iodide as substrate assessed as inhibition constant at 0.78 to 12.5 uM preincubated for 10 mins followed by substrate addition and measured after 15 mins by Lineweaver-Burk plot analysis
T2 sequence (P81908 whole entry): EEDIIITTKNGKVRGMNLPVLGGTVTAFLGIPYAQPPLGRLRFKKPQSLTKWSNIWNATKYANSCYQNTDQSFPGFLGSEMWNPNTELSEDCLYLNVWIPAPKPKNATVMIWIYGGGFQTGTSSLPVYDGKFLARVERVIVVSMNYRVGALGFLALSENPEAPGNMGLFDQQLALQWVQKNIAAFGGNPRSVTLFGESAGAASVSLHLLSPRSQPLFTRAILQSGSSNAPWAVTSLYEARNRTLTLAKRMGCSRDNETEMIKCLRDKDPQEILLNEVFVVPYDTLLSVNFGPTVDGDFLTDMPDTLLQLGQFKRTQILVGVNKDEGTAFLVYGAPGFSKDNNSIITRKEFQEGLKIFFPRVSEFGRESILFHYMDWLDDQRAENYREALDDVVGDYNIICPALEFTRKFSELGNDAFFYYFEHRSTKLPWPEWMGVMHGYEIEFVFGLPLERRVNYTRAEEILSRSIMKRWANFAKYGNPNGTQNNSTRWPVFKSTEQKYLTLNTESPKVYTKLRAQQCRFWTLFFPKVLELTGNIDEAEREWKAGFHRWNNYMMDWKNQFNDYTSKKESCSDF

[22] = biological target: Amyloid-beta precursor protein (Homo sapiens) (UniProt P05067); assay: Inhibition of amyloid beta (1 to 42 ) (unknown origin) aggregation at 20 umol/L incubated for 24 hrs by thioflavin-T fluorescence method relative to control; conditions: dose 20.0 µmol/L
Sequence of Amyloid-beta precursor protein (Homo sapiens) (P05067 whole entry): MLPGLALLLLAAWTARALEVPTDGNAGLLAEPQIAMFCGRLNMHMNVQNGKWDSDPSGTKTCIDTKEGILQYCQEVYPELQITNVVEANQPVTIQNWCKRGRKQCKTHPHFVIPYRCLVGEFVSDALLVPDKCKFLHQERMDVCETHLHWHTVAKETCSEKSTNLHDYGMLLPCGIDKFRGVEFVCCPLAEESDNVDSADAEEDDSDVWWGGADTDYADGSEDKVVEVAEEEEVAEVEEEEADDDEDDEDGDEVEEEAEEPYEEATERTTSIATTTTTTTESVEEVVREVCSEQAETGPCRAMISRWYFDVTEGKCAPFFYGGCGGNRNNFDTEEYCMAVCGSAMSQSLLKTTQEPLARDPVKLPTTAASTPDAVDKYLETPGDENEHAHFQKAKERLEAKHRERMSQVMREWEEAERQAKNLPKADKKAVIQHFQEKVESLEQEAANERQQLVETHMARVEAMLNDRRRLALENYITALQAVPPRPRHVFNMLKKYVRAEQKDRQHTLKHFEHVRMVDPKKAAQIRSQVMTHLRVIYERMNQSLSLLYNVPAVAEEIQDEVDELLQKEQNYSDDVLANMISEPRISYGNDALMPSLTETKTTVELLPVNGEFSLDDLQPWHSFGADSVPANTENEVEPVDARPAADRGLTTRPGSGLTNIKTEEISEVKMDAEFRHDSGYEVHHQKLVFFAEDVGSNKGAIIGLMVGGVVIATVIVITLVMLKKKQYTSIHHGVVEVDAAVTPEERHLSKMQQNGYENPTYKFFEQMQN

Cholinesterase [23] = biological target: T2, Cholinesterase; assay: Inhibition of equine serum BChE using butyrylthiocholine iodide as substrate preincubated for 10 mins followed by substrate addition and measured after 15 mins by Ellman's method
[24] = Acute toxicity in Sprague-Dawley rat assessed as histological changes in liver at 2000 mg/kg, IG administered as single dose measured after 14 days by H and E staining based analysis; type: organism-based; conditions: in vivo, po, 336 h, time 14 day
[25] = Acute toxicity in Sprague-Dawley rat assessed as behavioral abnormality at 2000 mg/kg, IG administered as single dose measured after 14 days; type: organism-based; conditions: in vivo, po, 336 h, time 14 day
BV-2 [26] = assay: Anti-neuroinflammation in mouse BV-2 cells assessed as inhibition of LPS-induced NO production at 100 to 3.125 umol/L measured after 24 hrs by Griess method; type: functional, cell-based; conditions: dose 100-3.125 µmol/L
[27] = Acute toxicity in Sprague-Dawley rat assessed as histological changes in heart at 2000 mg/kg, IG administered as single dose measured after 14 days by H and E staining based analysis; type: organism-based; conditions: in vivo, po, 336 h, time 14 day
Mus musculus [28] = assay: Anti-alzheimer activity against scopolamine-induced cognitive dysfunction mouse model assessed as […] of AChE activity in hippocampus at 50 to 100 mg/kg, po dosed for 10 days by colorimetric analysis; type: functional, organism-based; conditions: dose 50-100 mg/kg, time 10.0 day
Acetylcholinesterase [29] = biological target: T1, Acetylcholinesterase; assay: Inhibition of electric eel AChE using acetylthiocholine iodide as substrate preincubated for 10 mins followed by substrate addition and measured for 15 mins by Ellman's method
BV-2 [30] = assay: Anti-neuroinflammation in mouse BV-2 cells assessed as decrease in LPS-induced TNF-alpha production at 6.25 to 25 umol/L measured after 24 hrs by ELISA; type: functional, cell-based; conditions: dose 6.25-25 µmol/L
BV-2 [31] = assay: cells; type: functional, cell-based; conditions: Mus musculus, BV-2, 24 h
Description: Cytotoxicity against mouse BV-2 cells assessed as reduction in cell viability measured after 24 hrs by MTT assay

[32] = Acute toxicity in Sprague-Dawley rat assessed as lethal dose administered intragastrically as single dose measured after 14 days; conditions: in vivo, po, time 14 day
BV-2 [33] = assay: Effect of compound on LPS- induced iNOS production in mouse BV-2 cells incubated for 24 hrs by western blot analysis; type: functional, cell-based; conditions: dose 6.25-25 µM

CON(C)C(=O)Oc1ccccc1C(=O)NCCc1c[nH]c2ccccc12
Activity (Mus musculus [1]): Active
Activity (BV-2 [2]): Active
Activity [3]: Non-Toxic
Activity [4]: Non-Toxic
AUC(0-t) at 24 h [5]: 3.9 µg·h/mL
Activity (BV-2 [6]): Active
Activity (BV-2 [7]): Dose-Dependent Effect
Activity (Mus musculus [8]): Dose-Dependent Effect
Activity [9]: Non-Toxic
Activity (Mus musculus [10]): Dose-Dependent Effect
Activity (Mus musculus [11]): Active
Cmax [12]: 3.03 µg/mL
Activity (BV-2 [13]): Active
pKi (Acetylcholinesterase [14]): 5.80
MRT last at 24 h [15]: 4.89 h
Kp at 10 min (in vivo): 15.7
Tmax [16]: 4.8 min
Activity (Mus musculus [17]): Active
Activity [18]: Non-Toxic
pIC50 (HT-22): 3.86
Activity [19]: Non-Toxic
half-life [20]: 5.34 h
pKi (Cholinesterase [21]): 6.05
inhibition [22]: 40.3%
pIC50 (Cholinesterase [23]): 5.74
Activity [24]: Non-Toxic
Activity [25]: Non-Toxic
Activity (BV-2 [26]): Active
Activity [27]: Non-Toxic
Activity (Mus musculus [28]): Active
pIC50 (Acetylcholinesterase [29]): 5.49
Activity (BV-2 [30]): Active
pIC50 (BV-2 [31]): 3.70
LD50 at 336 h [32]: > 2000 mg/kg
Activity (BV-2 [33]): Dose-Dependent Effect
